Laboratory results published in article PMC12040169 (PLOS Biology, 2025).

Assay: in vitro
Conditions: human, hela cells, % viability

Row | SMILES | viability at 28.5 h, 10 µM
1 | O=C(CN1CCOCC1)NC(=O)Nc1ccccc1 [CBK269213] | 98%
2 | O=C(Nc1nnc(SCc2cc(=O)n3nc[nH]c3n2)s1)c1ccc(F)cc1 [CBK294399] | 90.2%
3 | CC1CCN(S(=O)(=O)c2ccc(S(=O)(=O)Nc3ncnn3C)cc2)CC1 [CBK306470] | 92.3%
4 | CCC(C)c1ccc(OCC(=O)Nc2ccc3[nH]c(=O)[nH]c3c2)cc1 (centres unmarked) [CBK266911] | 105%
5 | Cc1occc1C(=O)Nc1nc(CC(=O)N(C)Cc2ccsc2)cs1 [CBK305631] | 83.8%
6 | O=C(Nc1cnccn1)c1ccc(Cl)cc1Cl [CBK056922] | 85.5%
7 | CCOC(=O)c1cnc2ccc(F)cc2c1N1CCN(C)CC1 [CBK304376] | 90.1%
8 | CC(C)(Oc1ccc(Br)cc1)C(=O)NCCOc1ccccc1 [CBK268287] | 114%
9 | O=C(CSc1nnnn1-c1ccc(O)cc1)NC1CCCC1 [CBK295659] | 90.6%
10 | CC(C)(C)C(=O)c1cnc2sc3ccccc3n12 [CBK016512] | 91.6%
11 | CS(=O)(=O)c1ccc(-c2ccc3c(c2)OCCN(C2CCN(C(=O)CC(F)(F)F)CC2)C3)cc1 [CBK169260] | 90.8%
12 | COc1ccc(CCNC(=O)Nc2ccccc2[N+](=O)[O-])cc1 [CBK266497] | 96.8%
13 | CCn1c(S)nnc1CNC(=O)c1ccc(Cl)cc1Cl [CBK267152] | 94.3%
14 | C=C(C)Cn1nc(C)c(CN(C)CCN2CCCCC2)c1C [CBK282483] | 88.7%
15 | CC(Oc1ccc(S(=O)(=O)N2CCN(C)CC2)cc1)C(=O)NC1CCCCC1 (centres unmarked) [CBK269943] | 97.9%
16 | C=CCNC(=O)C1CCN(c2nc3ccccc3n2CC)CC1 [CBK283920] | 113%
17 | CN(C)S(=O)(=O)c1cc(C(=O)Nc2ccc(O)cc2)c(Cl)cc1Cl [CBK266767] | 95.4%
18 | CNc1ncnc2c1ncn2[C@@H]1O[C@H](CO)[C@@H](O)[C@H]1O [CBK200610] | 101%
19 | Cn1c(SCc2cc(-c3ccc(Cl)cc3)no2)nnc1-c1ccco1 [CBK295193] | 81.9%
20 | CCCCSc1nc(N)cc(N2CCC(C(=O)NCC)C2)n1 (centres unmarked) [CBK306880] | 88.2%
21 | Cc1cc(NC(=O)c2ccc3c(c2)C(=O)N(CC2CCCO2)C3=O)no1 (centres unmarked) [CBK072998] | 90.2%
22 | CCNC(=O)N[C@H]1[C@H](O)[C@@H](N(CC)CC)[C@@H]2OC[C@H]1O2 [CBK288816] | 113%

Row | SMILES | viability at 28.5 h, 10 µM
23 | O=C1N[C@@H]2CCN(S(=O)(=O)c3cccs3)[C@@H]2C(=O)N1c1ccc(F)cc1 [CBK289326] | 89.1%
24 | Cc1onc(-c2ccccc2)c1C(=O)N1CCC(C(N)=O)CC1 [CBK158721] | 84.4%
25 | Cc1ccc(C=C(c2ccccc2)c2nc3sc(C(=O)O)c(C)c3c(=O)[nH]2)s1 [CBK295638] | 100%
26 | Cc1cc(NC(=O)c2ccco2)c2ccccc2n1 [CBK116258] | 106%
27 | CCC(C)(C)C(=O)Nc1ccc(Cl)nc1 [CBK091334] | 96.4%
28 | Cc1onc(-c2ccccc2)c1-c1n[nH]c(=S)o1 [CBK009044] | 76.7%
29 | CC(NS(=O)(=O)c1cccc2c(S(=O)(=O)NC(C)c3ccccc3)cccc12)c1ccccc1 (centres unmarked) [CBK267717] | 83.6%
30 | CCN(CC)C(=O)C1CCCN(C(=O)Nc2ccc(N(CC)CC)cc2)C1 (centres unmarked) [CBK156139] | 94.4%
31 | NC(=O)c1ccccc1OCCO [CBK000640] | 87.8%
32 | CC(=O)C1=C(C)NC(SCC(=O)c2ccc(F)cc2)=C(C#N)C1c1sccc1C (centres unmarked) [CBK262624] | 95.6%
33 | CCOc1ccccc1-c1ccccc1NC(=O)c1ccc2c(c1)ncn2C1CC1 [CBK285808] | 84.3%
34 | Cc1nn(C)c(N2CCNCC2)c1NC(=O)c1ccccc1 [CBK050257T] | 99%
35 | CC(C)NC(=O)c1sc2ccccc2c1C1CN(C(=O)CC2CCCCC2)CCO1 (centres unmarked) [CBK285869] | 91.5%
36 | Cc1ccc(C(=O)COC(=O)C(Cc2ccccc2)N2C(=O)c3cc(Cl)c(Cl)cc3C2=O)cc1 (centres unmarked) [CBK264176] | 109%
37 | O=S(=O)(CC(F)(F)F)Nc1cccc(-c2nnn[nH]2)c1 [CBK154272] | 83.9%
38 | CN1CCN(C(=O)c2[nH]c3ccccc3c2NS(=O)(=O)Cc2ccccc2[N+](=O)[O-])CC1 [CBK050059] | 92.6%
39 | CN(C)/C=N/c1nc(=O)n([C@H]2CC(O)[C@@H](CO)O2)cc1/C=C/C(=O)NCCCCCCNC(=O)C(F)(F)F (some centres unmarked) [CBK201330] | 97.1%
40 | O=C(CSc1nc2ccccc2c(=O)n1Cc1ccccc1)c1ccc(Br)cc1 [CBK262700] | 93.4%
41 | Cc1nnc(-c2cc(CCC(C)C)n(-c3cccc(C(=O)N4CCCCC4)c3)n2)o1 [CBK114689] | 95.4%
42 | O=C(Nc1ccc2c(c1)OCO2)N1CCN(c2ccc(F)cc2)CC1 [CBK270332] | 86.3%
43 | CS(=O)(=O)CCC(C(=O)O)N1C(=O)c2ccc(Oc3ccc(Cl)cc3)cc2C1=O (centres unmarked) [CBK266377] | 92%
44 | CC(C)c1nc(CC(=O)NCCC(=O)N2CCCc3ccccc32)cs1 [CBK305437] | 98.1%

Row | SMILES | viability at 28.5 h, 10 µM
45 | CCc1[nH]c2ccc(C(=O)NCCn3ccnc3C)cc2c1C [CBK282505] | 96.4%
46 | COc1ccccc1-c1nc2ccccn2c1CO [CBK173210] | 113%
47 | CC1CCCN(c2ncnc3c2[nH]c2ccccc23)C1 (centres unmarked) [CBK287948] | 106%
48 | Cc1cc(NC(=O)c2ccc(N3C(=O)CCC3=O)cc2)nc2c1c(=O)oc1ccccc12 [CBK291205] | 114%
49 | COc1ccc(C(NC(=O)[C@H]2CCCN2C(=O)COc2ccccc2)c2ccccc2C)cn1 (some centres unmarked) [CBK076682] | 96.1%
50 | Cc1nc2ccc(C(=O)NC3=NN(c4ccccc4)C(=O)C3)cn2c1N(C)C(=O)CCc1ccccc1 [CBK146817] | 89.8%
51 | CCn1c(CN(C)Cc2cc(C)[nH]n2)nc2ccccc21 [CBK282120] | 110%
52 | CCOC(=O)c1[nH]c2ccccc2c1NC(=O)c1ccc(Cl)c(C)c1 [CBK160146] | 87%
53 | Cc1nn(C)cc1C(C)NC(=O)c1ccc(CN(C)C)o1 (centres unmarked) [CBK282083] | 96.1%
54 | Fc1ccc(OCCN2CCC3(C2)OCCc2c3[nH]c3ccccc23)cc1 (centres unmarked) [CBK061787] | 86.7%
55 | C[C@H](c1ccccc1)n1c(=O)[nH]c2ncc(-c3ccc(C(N)=O)cc3)nc21 [CBK064377] | 111%
56 | Cc1ccc2c(c1)nc(CNC(=O)NCCc1nc(C)no1)n2C [CBK305552] | 98.8%
57 | O=C(O)c1ccccc1C(=O)N1CCN(Cc2ccc3c(c2)OCO3)CC1 [CBK074751] | 97.9%
58 | Cc1ccc(COCSc2nc3ccccc3n2CC(O)CO)cc1C (centres unmarked) [CBK021195] | 85.1%
59 | CCOC(=O)c1c(NC(=O)CC2Nc3ccccc3NC2=O)sc(C)c1C (centres unmarked) [CBK263381] | 94.2%
60 | Brc1ccc2nc3c(nc2c1)Nc1nonc1N3 [CBK262414] | 78.5%
61 | COc1ccc(C(=O)N[C@@H]2CN(Cc3ccc(CO)o3)CCC[C@H]2O)cc1 [CBK289067] | 89.8%
62 | CC(=O)N(C)c1nc(-c2ccccc2C)ccc1C(=O)N(C)C [CBK106350] | 89%
63 | CNC(=S)Nc1ncn(Cc2cccc(F)c2)n1 [CBK288368] | 106%
64 | Oc1ccccc1-c1ccnc(SC(F)F)n1 [CBK021971] | 81.8%
65 | N#Cc1ccc(N2CCCC(N3CCNC3=O)C2)c(C(F)(F)F)c1 (centres unmarked) [CBK305162] | 84.9%
66 | CN(C)c1cccc(OCCn2ccnc(N3CCNCC3)c2=O)c1 [CBK013866F] | 114%

Row | SMILES | viability at 28.5 h, 10 µM
67 | COC(=O)CCc1ccc(S(=O)(=O)N2CCN(Cc3cccc4cccnc34)CC2)cc1 [CBK062969] | 87.8%
68 | O=C(Cn1nc(-c2cc3c(s2)CCC3)oc1=O)N1CCCC1 [CBK284712] | 90.3%
69 | COCc1nnc(Sc2cc(N3CCCC3)ncn2)s1 [CBK093746] | 88.4%
70 | COc1ccccc1-c1cnc(N)c(N[C@@H](CO)C(C)C)n1 [CBK063749] | 101%
71 | Cc1ccc2c(c1)CN(C(=O)C1CC1C)CC1(CCN(C)CC1)O2 (centres unmarked) [CBK284833] | 94.5%
72 | C(=C\CSC1=NCCN1)/CSC1=NCCN1 [CBK264266] | 107%
73 | CN(C)c1ccc(CCNC(=O)c2cn3ccccc3n2)cc1 [CBK281916] | 87.4%
74 | Cc1nnc(SCc2cc(=O)[nH]c(Nc3nc(C)c4cccc(C)c4n3)n2)s1 [CBK266740] | 92.9%
75 | CCC1CCCCN1C(=O)c1ccc(C(C)(C)C)cc1 (centres unmarked) [CBK076644] | 103%
76 | O=C(c1ccsc1)N1CCC2(CC1)CN(Cc1ccccc1)CC(c1ccccc1)O2 (centres unmarked) [CBK286438] | 94.4%
77 | Oc1ccc(/C=N/c2nnn[nH]2)cc1 [CBK260976] | 101%
78 | CCCNC(=O)CN1C(=O)N2CCCN=C2c2ccccc21 [CBK284405] | 86%
79 | C[C@H]1CN2CCCC2CN1Cc1ccc2c(c1)CCO2 (some centres unmarked) [CBK285443] | 104%
80 | OCCN(Cc1cccnc1)Cc1cccn1-c1ccc(F)cc1F [CBK283042] | 90.4%
81 | CSc1nsc(SCC(=O)c2ccc3c(c2)OCCO3)n1 [CBK268904] | 108%
82 | CC1CCN(S(=O)(=O)c2ccc(NC(=O)COc3ccc([N+](=O)[O-])cc3)cc2)CC1 [CBK264994] | 95.4%
83 | O=C(O)CC1C(=O)NCCN1Cc1cccc(C(F)(F)F)c1 (centres unmarked) [CBK269958] | 91.1%
84 | CNc1nc(N(C)C)nc(-n2cnc(SCCOc3ccccc3C)n2)n1 [CBK288564] | 92.4%
85 | Cc1ccc(OCC(=O)Nc2ccc3c(c2)C(=O)Nc2ccccc2O3)cc1 [CBK287660] | 88.2%
86 | CCN1CCC2CCC(C1)N2Cc1ccc(Oc2cnccn2)cc1 (centres unmarked) [CBK304034] | 95.7%
87 | COc1ccc(OC)c(C(O)CN2CCc3sccc3C2c2cccs2)c1 (centres unmarked) [CBK285532] | 109%

Same assay, conditions: human, hela cells, % viability, bulk resorufin, single well

Row | SMILES | viability at 28.5 h, 10 µM
88 | COc1ccc(CN2CCN(Cc3ccccc3)CC2)c(OC)c1 [CBK261553] | 115%
89 | COC(=O)c1cccc2c3c(n(Cc4ccccc4)c12)CCCC3=O [CBK036304] | 94.7%
